Test results from patent publication US20260167659A1, “STING AGONISTS” (LIGACHEM BIOSCIENCES INC., priority 2022, published 2026).

What was measured:
Assay type in all cases: cell-based
hSTING HAQ variant = molecular target: T1, hSTING HAQ variant (Homo sapiens, UniProt Q86WV6, G230A/H232R/R293Q/R71H); assay: STING activation, THP1-Dual IRF3 reporter assay, hSTING-HAQ cells; settings: IRF3 luciferase reporter, 24 hours, read-out: STING activity using hSTING-HAQ cells, HAQ EC50
T1 construct: host or cells: THP1-Dual cells (human monocytes)
T1 sequence (Q86WV6 whole entry R71H/G230A/H232R/R293Q): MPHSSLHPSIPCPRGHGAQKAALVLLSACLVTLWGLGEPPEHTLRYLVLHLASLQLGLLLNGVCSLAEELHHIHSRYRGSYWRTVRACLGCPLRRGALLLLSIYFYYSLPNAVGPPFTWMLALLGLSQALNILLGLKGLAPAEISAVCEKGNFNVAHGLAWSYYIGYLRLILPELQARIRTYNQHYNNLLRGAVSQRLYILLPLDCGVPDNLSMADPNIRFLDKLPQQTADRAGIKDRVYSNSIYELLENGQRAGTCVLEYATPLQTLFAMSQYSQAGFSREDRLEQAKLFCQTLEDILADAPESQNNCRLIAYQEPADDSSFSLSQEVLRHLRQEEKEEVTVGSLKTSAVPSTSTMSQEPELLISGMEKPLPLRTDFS
Experimental: To assess potency of STING agonist compounds described herein, THP1-Dual™ Cells (NF—KB-SEAP and IRF-Lucia luciferase reporter monocytes, InvivoGen) were used. The reporter cells were knocked-in either of hSTING-WT (R232, #thpd-r232), HAQ variant (#thpd-nfis), or H232 variant (#thpd-h232). All cells were cultured at 37° C. in a humidified incubator at 5% CO2 and maintained in RPMI 1640 medium (Gibco, #22400097) supplemented with 10% heat-inactivated FBS and 1×Pen-Strep (Gibco, #15140122). To measure STING agonist-mediated IRF3 activity, the cells (9.0×10^4 cells per well) were seeded in a flat-bottomed 96-well plate. The next day, the cells were treated with compounds in a serial dilution for 24 hours. Subsequently, 20 μL of the cell culture supernatant and 50 μL of the QUANTI-Luc™ reagent (InvivoGen, #rep-qlc) were mixed in a 96-well white plate and then, luciferase activity was measured using an EnVision Xcite multilabel reader. The data were analyzed using Prism8 software (4-parameter).
The potency of STING agonist compounds was evaluated by the activation of Type I Interferon pathway using THP-1 IRF3 reporter assay.

[1] = Normal cell cytotoxicity in PBMCs, CellTiter-Glo; settings: human, read-out: In vitro cell cytotoxicity in PBMCs CC50
How it was run: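 PBMCs at 8.0×10^4 cells/well in RPMI 1640 with 10% FBS were rested 24 h at 37 °C. Cells were then exposed to the STING agonists for 72 h. Viability was read by CellTiter-Glo luminescence and expressed as percentage cell death.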

hSTING-WT (R232) = molecular target: T2, hSTING-WT (R232) (Homo sapiens, UniProt Q86WV6, H232R); assay: STING activation, THP1-Dual IRF3 reporter assay, hSTING-R232 cells; settings: IRF3 luciferase reporter, 24 hours, read-out: STING activity using hSTING-R232 cells EC50
T2 construct: host or cells: THP1-Dual cells (human monocytes) with knocked-in hSTING R232
T2 sequence (Q86WV6 whole entry H232R): as the sequence (Q86WV6 whole entry R71H/G230A/H232R/R293Q) above, with H71R, A230G, Q293R counted along it
How it was run: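 THP1-Dual monocytes carrying knocked-in hSTING-WT (R232), H232 or HAQ variants were seeded at 9.0×10^4 cells per well and treated next day with serially diluted compounds for 24 h. Secreted IRF-Lucia luciferase in the supernatant was read by luminescence, and EC50 values were fitted with a 4-parameter model.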

CCn1nc(C)cc1C(=O)Nc1nc2cc(C(N)=O)cc(OC/C=C/Cn3cc(NC(=O)OCc4ccc(O[C@@H]5O[C@H](C(=O)O)[C@@H](O)[C@H](O)[C@H]5O)c(C(=O)NCCOCCOCCN(C)C)c4)cn3)c2n1C/C=C/Cn1c(NC(=O)c2cc(C)nn2CC)nc2cc(C(N)=O)cc(OCCCC(=O)O)c21 [Compound 313]
EC50 (hSTING HAQ variant): 115 nM | CC50 at 72 h [1]: 98 nM | EC50 (hSTING-WT (R232)): 68.3 nM
